According to PMC10160982 (Proceedings of the National Academy of Sciences of the …, 2023):

Target: SARS-CoV-2 M^pro (Severe acute respiratory syndrome coronavirus 2, UniProt P0DTD1)
Experiment: FRET-based SARS-CoV-2 Mpro inhibition activity assay
Type: biochemical
Settings: SARS-CoV-2 M^pro inhibition IC50, FRET-based protease assay

COc1cc(O)ccc1/C=C/C(=O)c1ccc(O)cc1 [Echinatin] showed an IC50 of 22.5 µM.
